Results from US11090313B2, “Methods for inhibiting muscle atrophy” (UNIVERSITY OF IOWA RESEARCH FOUNDATION, priority 2010, dated 2021).
Entries after “also recorded” stand apart in the source; their conditions may differ.

What was measured:
Format in all cases: in vivo, mouse
[1] = tested on: mice; assay: Immobilization-induced skeletal muscle atrophy model (stapled tibialis anterior); details: for immobilization-induced muscle atrophy (weights of immobile vs mobile TA): 2 days before and 6 days after immobilization, ursolic acid and betulinic acid varying doses, naringenin 200 mg/kg, tomatidine 5-200 mg/kg
Method: To test this, a mouse model of immobilization-induced skeletal muscle atrophy was used: mice were administered vehicle (corn oil) or varying doses of ursolic acid (positive control) or betulinic acid via intraperitoneal injection twice a day for two days. One tibialis anterior (TA) muscle was immobilized with a surgical staple, leaving the contralateral mobile TA as an intra-subject control. The vehicle or the same dose of ursolic acid or betulinic acid was continuously administered via i.p. injection twice daily for six days before comparing weights of the immobile and mobile TAs.
To test this, mice were administered vehicle (corn oil), ursolic acid (200 mg/kg), naringenin (200 mg/kg), or the combination of ursolic acid and naringenin (each at 200 mg/kg) via i.p injection twice a day for two days. One tibialis anterior (TA) muscle was immobilized with a surgical staple, leaving the contralateral mobile TA as an intrasubject control. Vehicle or the same doses of ursolic acid and/or naringenin was continuously administered via i.p. injection twice daily for six days before comparing weights of the immobile and mobile TAs.
To test this, mice were administered vehicle (corn oil) or tomatidine (50, 100 or 200 mg/kg) via i.p injection twice a day for two days. One tibialis anterior (TA) muscle was immobilized with a surgical staple, leaving the contralateral mobile TA as an intrasubject control. Vehicle or the same doses of tomatidine was administered via i.p. injection twice daily for six days before comparing weights of the immobile and mobile TAs. […] The same protocol was used to compare the effects of vehicle (corn oil) and tomatidine (5, 15 or 50 mg/kg) on immobilization-induced muscle atrophy.

[2] = tested on: mice; assay: High fat diet with ursolic acid and/or naringenin; details: HFD with ursolic acid 0.15% and/or naringenin 0.5% or 1.5%, 5 weeks
Method: To determine this, weight-matched mice were provided ad libitum access to standard (Harlan Teklad formula 7013), high fat diet (HFD; Harlan Teklad formula TD93075), or HFD containing varying concentrations of ursolic acid (0.15%) and/or naringenin (0.5% or 1.5%). After the mice consumed these diets for 5 weeks, fasting blood glucose, total body weight, fat mass, liver weight, grip strength, and skeletal muscle weight was measured.

[3] = tested on: C57BL/6 mice; assay: Fasting-induced muscle atrophy in mice (i.p. dosing, 24 h fast); details: for skeletal muscle weight in fasted mice (fasting-induced muscle atrophy) / fasting blood glucose: i.p. at 0 and 12 h of 24 h fast; for skeletal muscle weight in fasted mice (fasting-induced muscle atrophy): vs vehicle, mg/kg: ursolic acid 200, oleanolic acid 200, metformin 250, tomatidine 50, allantoin 2, tacrine 4, ungerine 2, hippeastrine 2, conessine 2; for fasting blood glucose: mice, mg/kg: metformin 250, ursolic acid 200, hippeastrine 2, conessine 2
Method: The mice were then fasted, and after 12 hours of fasting, the mice received a second dose of the compound or vehicle. After 24 hours of fasting, the blood glucose was measured and muscles were harvested. The data shown in FIGS. 6C-6H are means±SEM from ≤16 mice per condition. […] The effects of metformin and ursolic acid on fasting-induced muscle atrophy were also examined, i.e. the effect of 24 h fast (relative to ad lib feeding) on wet weight of lower hindlimb skeletal muscle (bilateral tibialis anterior (“TA” muscle), gastrocnemius, and soleus; see FIGS. 6E-6G). […] In FIGS. 6E-6H, each data point represents one mouse and the horizontal bars denote the means. In FIGS. 6C-6H, P-values were determined using unpaired t-tests.
Mice were then fasted, and after 12 hours of fasting, mice received a second dose of ursolic acid, oleanolic acid, or vehicle. After 24 hours of fasting, lower hindlimb skeletal muscles and liver were harvested and weighed.
To test this, food was withdrawn from mice, and then vehicle, ursolic acid (200 mg/kg) or tomatidine (50 mg/kg) were administered by i.p. injection. Twelve hours later, mice received another i.p. injection of vehicle or the same dose of ursolic acid or tomatidine. Twelve hours later, skeletal muscles were harvested and weighed. […] We next used the same protocol to compare the effects of vehicle (corn oil) and tomatidine (5, 15 and 50 mg/kg).

Row | Compound | skeletal muscle weight in fasted mice (fasting-induced muscle atrophy) [3] | fasting blood glucose [3] | also measured
1 | O=C1CC(c2ccc(O)cc2)Oc2cc(O)cc(O)c21 (stereo not drawn) [naringenin] | – | – | immobilization-induced muscle atrophy (weights of immobile vs mobile TA) ([1]; i.p. twice daily): reduced muscle atrophy; also recorded: reduces immobilization-induced skeletal muscle atrophy; fasting blood glucose in high fat fed mice [2]: partially prevented
2 | CC1(C)CC[C@]2(C(=O)O)CC[C@]3(C)C(=CC[C@@H]4[C@@]5(C)CC[C@H](O)C(C)(C)[C@@H]5CC[C@]43C)[C@@H]2C1 [oleanolic acid, reference compound] | do not reduce skeletal muscle atrophy | – | –
3 | CN(C)C(=N)N=C(N)N [metformin, reference compound] | did not alter muscle weight; also recorded: do not reduce skeletal muscle atrophy | significantly reduced fasting blood glucose | –
4 | C[C@H]1CC[C@]2(NC1)O[C@H]1C[C@H]3[C@@H]4CC[C@H]5C[C@@H](O)CC[C@]5(C)[C@H]4CC[C@]3(C)[C@H]1[C@@H]2C [tomatidine] | increased skeletal muscle; also recorded: increased muscle weight in fasted mice; also recorded: reduces fasting-induced muscle atrophy | – | dose of maximal effect on fasting-induced muscle atrophy ([3]; tomatidine 5, 15 and 50 mg/kg i.p. twice, 24 h fast): 50 mg/kg; dose of maximal inhibition of immobilization-induced muscle atrophy ([1]; i.p. twice daily): 50 mg/kg; potency relative to ursolic acid in immobilization-induced muscle atrophy ([1]; i.p. twice daily): more potent than ursolic acid; immobilization-induced muscle atrophy (weights of immobile vs mobile TA) ([1]; i.p. twice daily): reduced muscle atrophy; also recorded: reduces immobilization-induced muscle atrophy; EC50, reduction of immobilization-induced muscle atrophy ([1]; tomatidine 5, 15 or 50 mg/kg i.p. twice daily): < 5 mg/kg
5 | Nc1c2c(nc3ccccc13)CCCC2 [tacrine, reference compound] | increased muscle weight in fasted mice; also recorded: reduce fasting-induced muscle atrophy | – | –
6 | CO[C@@H]1C=C2CCN(C)[C@@H]2[C@H]2c3cc4c(cc3C(=O)O[C@H]21)OCO4 [ungerine] | increased muscle weight in fasted mice; also recorded: reduce fasting-induced muscle atrophy | – | –
7 | NC(=O)NC1NC(=O)NC1=O (stereo not drawn) [allantoin] | increased muscle weight in fasted mice; also recorded: reduce fasting-induced muscle atrophy | – | –
8 | C[C@H]1[C@H]2CC[C@H]3[C@@H]4CC=C5C[C@@H](N(C)C)CC[C@]5(C)[C@H]4CC[C@]23CN1C [conessine] | increased muscle weight in fasted mice; also recorded: reduce fasting-induced muscle atrophy | reduce fasting blood glucose | –
9 | CN1CCC2=C[C@@H](O)[C@@H]3OC(=O)c4cc5c(cc4[C@@H]3[C@H]21)OCO5 [hippeastrine] | increased muscle weight in fasted mice; also recorded: reduce fasting-induced muscle atrophy | reduce fasting blood glucose | –
